ChEMBL document CHEMBL1201862, “PubChem BioAssay data set” (2004)
The source made the active and inactive calls.

What was measured:
Type in all cases: functional
Orexin receptor type 2 [1] = molecular target: T1, Orexin receptor type 2 (Homo sapiens, UniProt O43614); test: Counterscreen assay for antagonists of the orexin 1 receptor (OX1R; HCRTR1): Fluorescence-based cell-based dose response assay for antagonists of the orexin 2 receptor (OX2R; HCRTR2), run by assay provider.
T1 sequence (O43614 whole entry): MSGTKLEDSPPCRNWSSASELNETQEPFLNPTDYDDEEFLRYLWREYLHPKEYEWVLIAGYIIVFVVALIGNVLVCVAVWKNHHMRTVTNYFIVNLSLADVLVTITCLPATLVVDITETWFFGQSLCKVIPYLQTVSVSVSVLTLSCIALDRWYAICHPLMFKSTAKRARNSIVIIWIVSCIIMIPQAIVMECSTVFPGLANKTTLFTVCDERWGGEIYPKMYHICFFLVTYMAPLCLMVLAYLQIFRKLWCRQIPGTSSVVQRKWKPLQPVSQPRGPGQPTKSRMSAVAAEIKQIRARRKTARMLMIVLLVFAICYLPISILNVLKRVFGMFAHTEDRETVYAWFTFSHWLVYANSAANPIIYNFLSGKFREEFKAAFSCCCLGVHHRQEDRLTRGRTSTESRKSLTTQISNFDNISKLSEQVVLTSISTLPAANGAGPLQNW

[2] = (§1) Counterscreen for antagonists of the orexin 1 receptor (OX1R; HCRTR1): Fluorescence-based cell-based high throughput dose response assay to identify antagonists of the parental CHO cell line. [Related pubchem assays (depositor defined):AID434989, AID435008, AID463079, AID485270, AID492963, AID492964, AID492965, AID493232, AID504699, AID504701]
CHO-K1 = test: as §1, with “Homogeneous time resolved fluorescence (HTRF)-based” for “Fluorescence-based”, “cell-based” for “cell-based high throughput”, “CHO-K1” for “CHO”; conditions: Cricetulus griseus;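 note: potency for inhibition of ATP-stimulated IP1 production as antagonists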
Orexin receptor type 2 [3] = molecular target: T1, Orexin receptor type 2; test: Counterscreen assay for antagonists of the orexin 1 receptor (OX1R; HCRTR1): Homogeneous Time Resolved Fluorescence (HTRF)-based cell-based dose response assay for antagonists of the orexin 2 receptor (OX2R; HCRTR2), run by assay provider.
[4] = molecular target: T2, Orexin/Hypocretin receptor type 1 (Homo sapiens, UniProt O43613); test: (§2) Fluorescence-based cell-based high throughput dose response assay for antagonists of the orexin 1 receptor (OX1R; HCRTR1). [Related pubchem assays (depositor defined):AID434989, AID435008, AID463079, AID485270, AID492963, AID492964, AID492965, AID493232, AID504717, AID504718]
T2 sequence (O43613 whole entry): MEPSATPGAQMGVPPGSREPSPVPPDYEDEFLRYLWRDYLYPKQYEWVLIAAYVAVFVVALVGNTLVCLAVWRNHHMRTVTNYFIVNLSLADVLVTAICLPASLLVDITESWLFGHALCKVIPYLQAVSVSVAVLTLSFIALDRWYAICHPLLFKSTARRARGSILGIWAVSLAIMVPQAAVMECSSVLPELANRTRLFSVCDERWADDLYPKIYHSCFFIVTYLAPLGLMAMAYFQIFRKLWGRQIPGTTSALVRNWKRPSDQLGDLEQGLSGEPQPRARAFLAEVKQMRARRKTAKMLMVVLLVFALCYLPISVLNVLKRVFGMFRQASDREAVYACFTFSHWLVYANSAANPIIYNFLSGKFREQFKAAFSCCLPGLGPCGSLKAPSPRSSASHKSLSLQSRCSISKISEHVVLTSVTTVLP

[5] = molecular target: T2, Orexin/Hypocretin receptor type 1; test: as §2, with “Homogeneous Time Resolved Fluorescence (HTRF)-based” for “Fluorescence-based”
[6] = molecular target: T3, Sentrin-specific protease 8 (Homo sapiens, UniProt Q96LD8); test: SENP8 protease inhibitors, SAR follow-up, biochemical, luminescence, set 2 (AID 588601)
T3 sequence (Q96LD8 whole entry): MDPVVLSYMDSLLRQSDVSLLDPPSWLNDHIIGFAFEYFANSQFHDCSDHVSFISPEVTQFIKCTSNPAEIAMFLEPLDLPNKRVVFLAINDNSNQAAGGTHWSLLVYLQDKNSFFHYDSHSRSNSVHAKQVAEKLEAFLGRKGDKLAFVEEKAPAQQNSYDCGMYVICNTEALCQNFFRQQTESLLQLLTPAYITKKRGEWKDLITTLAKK

[7] = molecular target: T4, Sentrin-specific protease 7 (Homo sapiens, UniProt Q9BQF6); test: SENP7 protease inhibitors, SAR follow-up, biochemical, luminescence, set 2 (AID 588600)
T4 sequence (Q9BQF6 whole entry): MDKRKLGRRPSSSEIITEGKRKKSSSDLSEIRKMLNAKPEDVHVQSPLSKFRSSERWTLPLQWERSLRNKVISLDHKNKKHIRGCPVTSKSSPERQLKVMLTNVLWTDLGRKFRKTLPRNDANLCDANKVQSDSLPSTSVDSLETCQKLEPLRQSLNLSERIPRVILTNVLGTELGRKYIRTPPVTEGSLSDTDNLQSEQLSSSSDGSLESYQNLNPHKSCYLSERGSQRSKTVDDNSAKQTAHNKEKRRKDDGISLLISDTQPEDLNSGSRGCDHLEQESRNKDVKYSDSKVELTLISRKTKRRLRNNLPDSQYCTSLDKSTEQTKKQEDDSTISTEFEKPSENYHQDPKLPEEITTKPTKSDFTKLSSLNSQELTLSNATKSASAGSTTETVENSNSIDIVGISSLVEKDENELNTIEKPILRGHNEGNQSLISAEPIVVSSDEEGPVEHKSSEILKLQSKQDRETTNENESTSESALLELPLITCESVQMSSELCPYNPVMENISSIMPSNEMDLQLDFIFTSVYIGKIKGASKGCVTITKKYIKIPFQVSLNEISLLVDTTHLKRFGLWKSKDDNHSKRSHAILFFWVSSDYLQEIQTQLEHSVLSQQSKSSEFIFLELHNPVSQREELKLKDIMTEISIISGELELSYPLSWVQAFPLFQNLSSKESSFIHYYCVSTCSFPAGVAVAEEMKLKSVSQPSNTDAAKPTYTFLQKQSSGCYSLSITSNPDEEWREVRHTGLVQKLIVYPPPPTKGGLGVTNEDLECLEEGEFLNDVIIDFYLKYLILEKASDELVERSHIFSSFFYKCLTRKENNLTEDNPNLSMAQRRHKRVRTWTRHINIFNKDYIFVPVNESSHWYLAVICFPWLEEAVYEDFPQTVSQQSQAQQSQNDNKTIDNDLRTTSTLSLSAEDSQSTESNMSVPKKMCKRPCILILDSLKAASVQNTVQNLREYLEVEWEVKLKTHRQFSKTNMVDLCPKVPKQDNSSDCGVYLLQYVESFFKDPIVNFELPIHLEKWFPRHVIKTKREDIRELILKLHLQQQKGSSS

[8] = molecular target: T5, Sentrin-specific protease 6 (Homo sapiens, UniProt Q9GZR1); test: SENP6 protease inhibitors, SAR follow-up, biochemical, luminescence, set 2 (AID 588598)
T5 sequence (Q9GZR1 whole entry): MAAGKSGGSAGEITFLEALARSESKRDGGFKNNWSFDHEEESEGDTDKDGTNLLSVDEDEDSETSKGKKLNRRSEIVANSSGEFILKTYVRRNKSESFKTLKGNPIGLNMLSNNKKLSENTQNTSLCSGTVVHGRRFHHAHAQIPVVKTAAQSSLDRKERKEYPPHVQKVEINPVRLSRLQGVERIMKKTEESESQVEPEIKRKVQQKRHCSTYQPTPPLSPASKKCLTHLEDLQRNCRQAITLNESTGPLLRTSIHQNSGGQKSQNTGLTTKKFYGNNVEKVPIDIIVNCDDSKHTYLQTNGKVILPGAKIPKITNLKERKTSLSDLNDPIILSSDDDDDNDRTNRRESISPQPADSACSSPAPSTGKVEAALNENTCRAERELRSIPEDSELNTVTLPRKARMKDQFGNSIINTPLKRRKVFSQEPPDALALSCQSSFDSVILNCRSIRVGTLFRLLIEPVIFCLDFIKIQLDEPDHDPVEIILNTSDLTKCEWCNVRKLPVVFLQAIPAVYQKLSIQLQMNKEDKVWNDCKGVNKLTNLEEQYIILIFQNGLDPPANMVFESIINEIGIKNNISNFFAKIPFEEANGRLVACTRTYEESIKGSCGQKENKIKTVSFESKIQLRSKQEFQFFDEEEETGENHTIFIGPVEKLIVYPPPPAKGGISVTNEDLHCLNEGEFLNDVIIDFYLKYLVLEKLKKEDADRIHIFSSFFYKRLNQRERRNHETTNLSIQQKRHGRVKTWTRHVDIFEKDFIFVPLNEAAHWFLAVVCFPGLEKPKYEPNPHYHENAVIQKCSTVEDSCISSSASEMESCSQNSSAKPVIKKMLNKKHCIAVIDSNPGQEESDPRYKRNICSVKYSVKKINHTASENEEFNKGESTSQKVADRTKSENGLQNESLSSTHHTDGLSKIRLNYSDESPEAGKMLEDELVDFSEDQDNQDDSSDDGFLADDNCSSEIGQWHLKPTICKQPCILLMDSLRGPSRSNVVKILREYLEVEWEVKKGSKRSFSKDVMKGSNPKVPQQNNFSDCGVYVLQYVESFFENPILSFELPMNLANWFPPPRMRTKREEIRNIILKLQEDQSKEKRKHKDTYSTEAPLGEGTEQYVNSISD

Caspase-3 = molecular target: T6, Caspase-3 (Homo sapiens, UniProt P42574); test: caspase-3 inhibitors as off-family protease, SAR follow-up, selectivity assay for SENP protease inhibitor project, biochemical, luminescence, set 2 (AID 588599)
T6 sequence (P42574 whole entry): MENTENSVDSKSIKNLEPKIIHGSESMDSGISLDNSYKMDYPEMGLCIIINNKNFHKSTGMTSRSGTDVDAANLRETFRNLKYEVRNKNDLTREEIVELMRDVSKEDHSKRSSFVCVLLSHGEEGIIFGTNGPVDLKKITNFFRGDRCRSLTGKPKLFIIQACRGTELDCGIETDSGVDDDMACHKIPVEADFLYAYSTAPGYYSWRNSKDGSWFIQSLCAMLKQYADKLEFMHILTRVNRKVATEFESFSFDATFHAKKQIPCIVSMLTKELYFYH

| IC50 [7] | IC50 [8] | IC50 (Caspase-3) | SMILES | IC50 (Orexin receptor type 2 [1]) | IC50 [2] | IC50 (CHO-K1) | IC50 (Orexin receptor type 2 [3]) | IC50 [4] | IC50 [5] | IC50 [6] |
| --- | --- | --- | --- | --- | --- | --- | --- | --- | --- | --- |
| – | – | – | CCSC1=C(C#N)C(c2ccccc2Cl)C(C(=O)c2cccs2)C(O)(C(F)(F)F)N1 (stereo not given) | 20 µM (inactive) | 33.9 µM (inactive) | > 66.2 µM (inactive) | > 50 µM (inactive) | 0.878 µM (active) | 0.174 µM (active) | – |
| – | – | – | CCOC(=O)C1=C(COC(=O)/C=C/c2cccc(OC)c2)NC(=O)NC1C (stereo not given) | > 88.8 µM (inactive) | > 49.8 µM (inactive) | > 66.2 µM (inactive) | > 50 µM (inactive) | 15.3 µM (inactive) | 8.33 µM (active) | – |
| > 99 µM (inactive) | > 99 µM (inactive) | > 99 µM (inactive) | CCOc1cccc2sc(NC(=O)c3ccc(C#N)cc3)nc12 | – | – | – | – | – | – | > 99 µM (inactive) |
| > 99 µM (inactive) | > 99 µM (inactive) | > 99 µM (inactive) | CN(C(=O)C(=O)c1c[nH]c2ccccc12)C1CCCCC1 | – | – | – | – | – | – | > 99 µM (inactive) |
